Laboratory results: ChEMBL document CHEMBL4828709, “Discovery of 2,4-pyrimidinediamine derivatives as potent dual inhibitors of ALK and HDAC” (Eur J Med Chem, 2021)

Experiments:
Histone deacetylase 1 [1] = target: T1, Histone deacetylase 1 (Homo sapiens, UniProt Q13547); conditions: Sf9, dose 10.0 nM, time 15.0 min
Histone deacetylase 1 [2] = target: T1, Histone deacetylase 1; conditions: Sf9, dose 100.0 nM, time 15.0 min
[3] = target: T2, ALK tyrosine kinase receptor (Homo sapiens, UniProt Q9UM73); assay: Inhibition of ALK (unknown origin) at 10 nM preincubated for 10 mins followed by addition of substrate and ATP for 25 mins by caliper EZ reader method; conditions: time 35.0 min
T2 sequence (Q9UM73 19-1620 limits assumed): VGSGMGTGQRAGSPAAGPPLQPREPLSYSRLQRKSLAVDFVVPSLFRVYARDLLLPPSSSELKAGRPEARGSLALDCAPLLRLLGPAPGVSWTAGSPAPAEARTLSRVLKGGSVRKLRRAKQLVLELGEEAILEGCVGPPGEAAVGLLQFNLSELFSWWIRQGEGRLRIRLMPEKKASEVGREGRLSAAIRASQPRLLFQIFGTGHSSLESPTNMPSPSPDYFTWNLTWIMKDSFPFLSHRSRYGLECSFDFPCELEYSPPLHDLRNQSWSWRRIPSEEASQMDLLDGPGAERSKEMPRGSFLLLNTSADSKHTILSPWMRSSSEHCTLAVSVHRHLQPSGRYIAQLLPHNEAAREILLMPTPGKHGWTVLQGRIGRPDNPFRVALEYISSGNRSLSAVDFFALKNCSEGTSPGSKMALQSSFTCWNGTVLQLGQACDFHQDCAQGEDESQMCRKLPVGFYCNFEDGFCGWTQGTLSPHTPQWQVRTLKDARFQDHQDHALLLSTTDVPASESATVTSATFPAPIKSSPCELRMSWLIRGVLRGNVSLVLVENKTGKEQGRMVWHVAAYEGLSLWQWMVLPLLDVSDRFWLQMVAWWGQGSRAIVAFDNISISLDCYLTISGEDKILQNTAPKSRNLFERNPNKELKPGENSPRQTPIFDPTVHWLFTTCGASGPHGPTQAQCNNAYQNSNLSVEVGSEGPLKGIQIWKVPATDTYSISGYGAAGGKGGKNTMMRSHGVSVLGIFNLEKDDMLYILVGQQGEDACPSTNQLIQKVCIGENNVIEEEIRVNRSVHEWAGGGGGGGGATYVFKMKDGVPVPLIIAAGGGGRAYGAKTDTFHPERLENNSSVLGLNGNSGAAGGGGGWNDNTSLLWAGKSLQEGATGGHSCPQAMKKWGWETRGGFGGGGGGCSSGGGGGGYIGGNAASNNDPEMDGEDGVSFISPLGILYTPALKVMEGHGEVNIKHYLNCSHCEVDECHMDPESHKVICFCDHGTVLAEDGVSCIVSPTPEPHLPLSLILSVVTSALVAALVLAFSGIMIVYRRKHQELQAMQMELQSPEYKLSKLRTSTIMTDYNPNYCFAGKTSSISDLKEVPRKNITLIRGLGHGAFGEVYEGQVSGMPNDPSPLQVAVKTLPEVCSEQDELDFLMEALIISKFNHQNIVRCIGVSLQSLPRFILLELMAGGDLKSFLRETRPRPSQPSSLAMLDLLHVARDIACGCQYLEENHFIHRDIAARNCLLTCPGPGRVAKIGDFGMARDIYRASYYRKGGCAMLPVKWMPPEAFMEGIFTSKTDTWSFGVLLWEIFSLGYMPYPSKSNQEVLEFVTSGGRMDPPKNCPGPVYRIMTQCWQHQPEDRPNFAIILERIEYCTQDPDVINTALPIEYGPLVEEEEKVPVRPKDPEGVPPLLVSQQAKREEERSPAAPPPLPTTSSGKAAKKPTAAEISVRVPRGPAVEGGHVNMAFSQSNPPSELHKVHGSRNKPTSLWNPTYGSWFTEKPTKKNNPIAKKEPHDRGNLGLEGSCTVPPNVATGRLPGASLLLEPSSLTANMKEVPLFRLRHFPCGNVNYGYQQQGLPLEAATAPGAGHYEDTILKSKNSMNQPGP

[4] = target: T2, ALK tyrosine kinase receptor; assay: Inhibition of ALK (unknown origin) at 100 nM preincubated for 10 mins followed by addition of substrate and ATP for 25 mins by caliper EZ reader method; conditions: time 35.0 min

T1 sequence (Q13547 whole entry): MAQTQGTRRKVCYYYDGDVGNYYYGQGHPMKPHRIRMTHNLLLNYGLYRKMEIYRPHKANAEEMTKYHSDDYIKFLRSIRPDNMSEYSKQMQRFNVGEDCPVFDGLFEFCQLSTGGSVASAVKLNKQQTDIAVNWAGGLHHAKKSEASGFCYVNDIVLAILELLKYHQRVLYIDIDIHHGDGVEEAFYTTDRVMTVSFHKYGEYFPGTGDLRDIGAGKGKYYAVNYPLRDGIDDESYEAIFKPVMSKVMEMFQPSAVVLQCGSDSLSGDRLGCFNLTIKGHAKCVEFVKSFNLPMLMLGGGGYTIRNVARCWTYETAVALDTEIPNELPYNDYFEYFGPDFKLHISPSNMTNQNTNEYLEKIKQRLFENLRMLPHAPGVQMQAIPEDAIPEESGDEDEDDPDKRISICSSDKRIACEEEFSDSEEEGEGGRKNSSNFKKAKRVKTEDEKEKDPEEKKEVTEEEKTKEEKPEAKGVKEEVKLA

SMILES	inhibition (Histone deacetylase 1 [1])	inhibition (Histone deacetylase 1 [2])	inhibition [3]	inhibition [4]
CC(C)S(=O)(=O)c1ccccc1Nc1nc(Nc2ccc(/C=C/C(=O)NO)cc2)ncc1Cl	0%	3%	71.6%	101%
COc1cccc(Nc2nc(Nc3ccc(NC(=O)CCCCCCC(=O)NO)cc3)ncc2Cl)c1	83%	97%	1.2%	20%
COc1cnc(Nc2ccc(NC(=O)CCCCCCC(=O)NO)cc2)nc1Nc1ccccc1S(=O)(=O)C(C)C	68%	91%	60.4%	94.9%
O=C(CCCCCCC(=O)Nc1ccc(Nc2ncc(Cl)c(Nc3ccccc3)n2)cc1)NO	84%	99%	4.9%	36.9%
COc1cccc(Nc2nc(Nc3ccc(NC(=O)CCCCCCC(=O)NO)cc3)ncc2C(F)(F)F)c1	56%	89%	4.9%	7.6%
O=C(CCCCCCC(=O)Nc1ccc(Nc2ncc(Cl)c(Nc3ccccc3Cl)n2)cc1)NO	67%	90%	3.1%	21.2%
CC(C)S(=O)(=O)c1ccccc1Nc1nc(Nc2ccc(NC(=O)CCCCCCC(=O)NO)cc2)ncc1F	70%	94%	66.3%	96%
Cc1ccc(Nc2nc(Nc3ccc(NC(=O)CCCCCCC(=O)NO)cc3)ncc2Cl)cc1	86%	97%	7.2%	30.1%
Cc1cccc(Nc2nc(Nc3ccc(NC(=O)CCCCCCC(=O)NO)cc3)ncc2Cl)c1	–	–	0.2%	4.9%
CC(C)S(=O)(=O)c1ccccc1Nc1nc(Nc2cccc(C(=O)NO)c2)ncc1Cl	-3%	–	–	–
CC(C)S(=O)(=O)c1ccccc1Nc1nc(Nc2ccc(NC(=O)CC(=O)NO)cc2)ncc1Cl	-10%	-7%	92.1%	98.2%
O=C(CCCCCCC(=O)Nc1ccc(Nc2ncc(Cl)c(Nc3ccccc3Br)n2)cc1)NO	67%	88%	0.2%	25%
COc1ccc(Nc2nc(Nc3ccc(NC(=O)CCCCCCC(=O)NO)cc3)ncc2Cl)cc1OC	65%	94%	3.1%	17.6%
COc1cc(C(=O)NCCCCCC(=O)NO)ccc1Nc1ncc(Cl)c(Nc2ccccc2S(=O)(=O)C(C)C)n1	45%	86%	97.3%	98.5%
CC(C)S(=O)(=O)c1ccccc1Nc1nc(Nc2ccc(C(=O)NCCC(=O)NO)cc2)ncc1Cl	-1%	3%	86.7%	97.3%
CC(C)S(=O)(=O)c1ccccc1Nc1nc(Nc2cccc(C(=O)NCCC(=O)NO)c2)ncc1Cl	-1%	4%	81%	99.1%
CC(C)S(=O)(=O)c1ccccc1Nc1nc(Nc2ccc(C(=O)NO)cc2)ncc1Cl	0.1%	–	81.1%	–
COc1ccc(C)c(Nc2nc(Nc3ccc(NC(=O)CCCCCCC(=O)NO)cc3)ncc2Cl)c1	–	–	-0.7%	4.9%
Cc1ccccc1Nc1nc(Nc2ccc(NC(=O)CCCCCCC(=O)NO)cc2)ncc1Cl	91%	99%	1.2%	27.8%

Now from value to molecule:

inhibition (Histone deacetylase 1 [1])	inhibition (Histone deacetylase 1 [2])	inhibition [3]	inhibition [4]	SMILES
35%	78%	98.1%	101%	Cc1cc(Nc2ncc(Cl)c(Nc3ccccc3S(=O)(=O)C(C)C)n2)ccc1C(=O)NCCCCCCC(=O)NO
23%	65%	81%	97.7%	CC(C)S(=O)(=O)c1ccccc1Nc1nc(Nc2cccc(C(=O)NCCCCC(=O)NO)c2)ncc1Cl
38%	83%	87%	98.1%	CC(C)S(=O)(=O)c1ccccc1Nc1nc(Nc2cccc(NC(=O)CCCC(=O)NO)c2)ncc1Cl
8%	39%	76.9%	98.5%	Cc1ccc(Nc2ncc(Cl)c(Nc3ccccc3S(=O)(=O)C(C)C)n2)cc1NC(=O)CCCCC(=O)NO
26%	74%	99%	101%	COc1cc(Nc2ncc(Cl)c(Nc3ccccc3S(=O)(=O)C(C)C)n2)ccc1C(=O)NCCCCCC(=O)NO
55%	101%	89.4%	98.1%	CC(C)S(=O)(=O)c1ccccc1Nc1nc(Nc2ccc(C(=O)NCCCCCC(=O)NO)cc2)ncc1Cl
4%	17%	87.6%	98.5%	CC(C)S(=O)(=O)c1ccccc1Nc1nc(Nc2ccc(NC(=O)CCCC(=O)NO)cc2)ncc1Cl
55%	86%	89.4%	98%	CC(C)S(=O)(=O)c1ccccc1Nc1nc(Nc2cccc(NC(=O)CCCCCC(=O)NO)c2)ncc1Cl
10%	41%	87.2%	98%	CC(C)S(=O)(=O)c1ccccc1Nc1nc(Nc2cccc(NC(=O)CCCCC(=O)NO)c2)ncc1Cl
45%	93%	87.7%	97.8%	CC(C)S(=O)(=O)c1ccccc1Nc1nc(Nc2ccc(C(=O)NCCCCCC(=O)NO)c(Cl)c2)ncc1Cl
-8%	20%	84.7%	99%	CC(C)S(=O)(=O)c1ccccc1Nc1nc(Nc2ccc(NC(=O)CCCCC(=O)NO)cc2)ncc1Cl
41%	84%	82.6%	96.6%	CC(C)S(=O)(=O)c1ccccc1Nc1nc(Nc2cccc(C(=O)NCCCCCCC(=O)NO)c2)ncc1Cl
4%	44%	85.7%	98%	CC(C)S(=O)(=O)c1ccccc1Nc1nc(Nc2cccc(C(=O)NCCCC(=O)NO)c2)ncc1Cl
58%	96%	93.1%	97.3%	Cc1cc(C(=O)NCCCCCC(=O)NO)ccc1Nc1ncc(Cl)c(Nc2ccccc2S(=O)(=O)C(C)C)n1
7%	49%	86.8%	98.5%	Cc1c(Nc2ncc(Cl)c(Nc3ccccc3S(=O)(=O)C(C)C)n2)cccc1C(=O)NCCCCCC(=O)NO
8%	31%	85.2%	98.8%	CC(C)S(=O)(=O)c1ccccc1Nc1nc(Nc2ccc(C(=O)NCCCCC(=O)NO)cc2)ncc1Cl
-2%	4%	91.2%	97.9%	CC(C)S(=O)(=O)c1ccccc1Nc1nc(Nc2ccc(C(=O)NCCCC(=O)NO)cc2)ncc1Cl
48%	93%	97.8%	102%	Cc1cc(Nc2ncc(Cl)c(Nc3ccccc3S(=O)(=O)C(C)C)n2)ccc1C(=O)NCCCCCC(=O)NO
-2%	–	–	–	CC(C)S(=O)(=O)c1ccccc1Nc1nc(Nc2ccc(NC(=O)CCC(=O)NO)cc2)ncc1Cl
35%	84%	83.2%	97.3%	CC(C)S(=O)(=O)c1ccccc1Nc1nc(Nc2cccc(C(=O)NCCCCCC(=O)NO)c2)ncc1Cl
63%	93%	83.5%	97.9%	Cc1cnc(Nc2ccc(NC(=O)CCCCCCC(=O)NO)cc2)nc1Nc1ccccc1S(=O)(=O)C(C)C
52%	90%	86.5%	98.8%	CC(C)S(=O)(=O)c1ccccc1Nc1nc(Nc2ccc(NC(=O)CCCCCC(=O)NO)cc2)ncc1Cl
24%	67%	70.3%	100%	CC(C)S(=O)(=O)c1ccccc1Nc1nc(Nc2ccc(C(=O)NCCCCCCC(=O)NO)c(Cl)c2)ncc1Cl
